In ChEMBL document CHEMBL4340512, “Discovery of novel triazolo[4,3-b]pyridazin-3-yl-quinoline derivatives as PIM inhibitors” (Eur J Med Chem, 2019):
pEC50, pIC50: −log10 of the molar value.

Columns and labels:
[1] = target: T1, Serine/threonine-protein kinase pim-1 (Homo sapiens, UniProt P11309); assay: Inhibition of His tagged human recombinant PIM1 using PIM tide (ARKRRRHPSGPPTA) as substrate incubated for 1 hr by fluorescence based assay
[2] = target: T1, Serine/threonine-protein kinase pim-1; assay: Inhibition of PIM1 in human NCI-H1299 cells assessed as reduction in BAD phosphorylation at Ser-112 residue incubated for 4 hrs by ELISA; type: cell-based; conditions: for pEC50: read-out: EC50; for EC50: nci-h1299
[3] = target: Serine/threonine-protein kinase pim-2 (Homo sapiens, UniProt Q9P1W9); assay: Inhibition of His tagged human recombinant PIM2 using PIM tide (ARKRRRHPSGPPTA) as substrate incubated for 1 hr by fluorescence based assay
[4] = target: Serine/threonine-protein kinase pim-3 (Homo sapiens, UniProt Q86V86); assay: Inhibition of N-terminal 6-His tagged human recombinant PIM3 using PIM tide (ARKRRRHPSGPPTA) as substrate incubated for 1 hr by fluorescence based assay
[5] = target: Voltage-gated inwardly rectifying potassium channel KCNH2 (Homo sapiens, UniProt Q12809)
[6] = target: T2, Receptor-type tyrosine-protein kinase FLT3 (Homo sapiens, UniProt P36888); assay: Inhibition of human FLT3 using EAIYAAPFAKKK as substrate incubated for 60 mins by fluorescence based assay
T2 sequence (P36888 whole entry): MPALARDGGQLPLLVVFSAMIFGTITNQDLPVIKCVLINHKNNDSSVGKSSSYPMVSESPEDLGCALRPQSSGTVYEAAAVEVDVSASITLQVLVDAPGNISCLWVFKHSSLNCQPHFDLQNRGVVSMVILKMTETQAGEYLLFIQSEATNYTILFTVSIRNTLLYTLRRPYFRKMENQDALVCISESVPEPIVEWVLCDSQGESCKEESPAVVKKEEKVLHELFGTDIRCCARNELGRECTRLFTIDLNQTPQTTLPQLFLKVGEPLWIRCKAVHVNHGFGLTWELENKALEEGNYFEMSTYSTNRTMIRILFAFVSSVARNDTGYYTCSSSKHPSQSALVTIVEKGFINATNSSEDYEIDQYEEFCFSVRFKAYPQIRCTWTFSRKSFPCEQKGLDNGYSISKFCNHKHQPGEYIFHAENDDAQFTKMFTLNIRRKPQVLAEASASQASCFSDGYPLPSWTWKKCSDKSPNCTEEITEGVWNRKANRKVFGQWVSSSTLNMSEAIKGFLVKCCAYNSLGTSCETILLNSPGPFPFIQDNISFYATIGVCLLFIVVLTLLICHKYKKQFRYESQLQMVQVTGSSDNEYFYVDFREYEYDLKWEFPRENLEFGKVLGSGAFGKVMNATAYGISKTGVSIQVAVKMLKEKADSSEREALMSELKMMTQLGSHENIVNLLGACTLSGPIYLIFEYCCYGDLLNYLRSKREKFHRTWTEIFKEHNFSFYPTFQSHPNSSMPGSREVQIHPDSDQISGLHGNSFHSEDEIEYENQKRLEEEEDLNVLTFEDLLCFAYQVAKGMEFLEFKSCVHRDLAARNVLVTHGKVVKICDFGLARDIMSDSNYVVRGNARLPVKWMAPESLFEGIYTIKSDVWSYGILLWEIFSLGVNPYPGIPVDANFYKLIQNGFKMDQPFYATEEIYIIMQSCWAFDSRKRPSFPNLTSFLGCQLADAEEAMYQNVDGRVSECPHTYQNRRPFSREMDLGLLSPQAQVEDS

[7] = Clearance in iv dosed Balb/c mouse administered as single dose measured after 0.08 to 4 hrs by HPLC/MS analysis; type: ADME, organism-based; conditions: in vivo
[8] = Clearance in iv dosed Balb/c mouse administered as single dose measured after 0.08 to 4 hrs by HPLC/MS analysis relative to hepatic blood flow; type: ADME, organism-based; conditions: in vivo
PC-3 = assay: Antiproliferative activity against human PC3 cells incubated for 72 hrs by CellTiter-Glo luminescence assay; type: functional; conditions: PC-3, 72 h
MV4-11 = assay: Antiproliferative activity against human MV4-11 cells incubated for 72 hrs by CellTiter-Glo luminescence assay; type: functional; conditions: MV4-11, 72 h
SK-MEL19 = assay: Antiproliferative activity against human SK-MEL-19 cells incubated for 72 hrs by CellTiter-Glo luminescence assay; type: functional; conditions: SK-MEL19, 72 h
MDA-MB-231 = assay: Antiproliferative activity against human MDA-MB-231 cells incubated for 72 hrs by CellTiter-Glo luminescence assay; type: functional; conditions: MDA-MB-231, 72 h

| Compound | pIC50 [1] | pEC50 [2] | pIC50 [3] | pIC50 [4] | also measured |
| --- | --- | --- | --- | --- | --- |
| CN1CCOc2c1cnn1c(-c3cccc(-c4cccc(NC5CCNCC5)c4)n3)nnc21 | 6.37 |  |  |  |  |
| CN1CCOc2c1cnn1c(-c3cccc(-c4cccc(NCC5CCNCC5)c4)n3)nnc21 | 6.11 |  |  |  |  |
| CN1CCOc2c1cnn1c(-c3ccc4cccc(NC5CCCCC5)c4c3)nnc21 | 7.34 | 6.58 | 5.09 | 5.81 | pIC50 [5]: 5.22; pIC50 [6]: < 5.00 |
| CN1CCOc2c1cnn1c(-c3cccc(C(=O)NCC4CCNCC4)c3)nnc21 | 6.06 |  |  |  |  |
| CN1CCOc2c1cnn1c(C(=O)Nc3ccccc3NCC3CCNCC3)nnc21 | < 5.00 |  |  |  |  |
| Cc1cc(NCC2(F)CCNCC2)c2nc(-c3nnc4c5c(cnn34)N(C)CCO5)ccc2c1 | 6.63 | 5.22 | < 5.00 |  |  |
| CN1CCOc2c1cnn1c(-c3ccc4cccc(NCC5CCCCC5)c4n3)nnc21 | 6.38 |  | < 6.00 | < 5.00 |  |
| CN1CCOc2c1cnn1c(C(=O)Nc3ccccc3OCC3CCNCC3)nnc21 | 5.96 |  |  |  |  |
| CN1CCOc2c1cnn1c(-c3ccnc(NC4CCNCC4)c3)nnc21 | < 5.00 |  |  |  |  |
| CN1CCOc2c1cnn1c(-c3ccc4cccc(N5CCC(N)CC5)c4n3)nnc21 | 7.42 | 5.27 | 5.67 | 7.10 |  |
| CN1CCOc2c1cnn1c(-c3ccc4cccc(NC5CCC(C)(C)CC5)c4n3)nnc21 | 7.04 |  | < 5.00 | 5.39 | EC50 [2]: Not Active |
| CN1CCOc2c1cnn1c(-c3ccc4cccc(N5CCNCC5)c4n3)nnc21 | 6.70 | 5.27 | < 5.00 | 6.59 |  |
| CN1CCOc2c1cnn1c(-c3ccc4cccc(NC(=O)C5CCNCC5)c4n3)nnc21 | 7.44 | 6.48 | 5.43 | 6.88 |  |
| CN1CCOc2c1cnn1c(-c3cccc(NCC4CCNCC4)c3)nnc21 | < 5.00 |  |  |  |  |
| CN1CCOc2c1cnn1c(C(=O)Nc3ccccc3NC3CCNCC3)nnc21 | < 5.00 |  |  |  |  |
| CN1CCOc2c1cnn1c(-c3cccc(C(=O)NCC4CCNCC4)n3)nnc21 | 5.15 |  |  |  |  |
| CC(C)C[C@H](NC(=O)[C@H](Cc1ccccc1)NC(=O)c1cnccn1)B(O)O [BORTEZOMIB] |  |  |  |  | GI50 (PC-3): 40 nM |
| CC(=O)O[C@@]12CO[C@@H]1C[C@H](O)[C@@]1(C)C(=O)[C@H](O)C3=C(C)[C@@H](OC(=O)[C@H](O)[C@@H](NC(=O)OC(C)(C)C)c4ccccc4)C[C@@](O)([C@@H](OC(=O)c4ccccc4)[C@H]21)C3(C)C [DOCETAXEL ANHYDROUS] |  |  |  |  | GI50 (MV4-11): 0.5 nM; GI50 (SK-MEL19): 2 nM |
| O=C(NOC[C@H](O)CO)c1ccc(F)c(F)c1Nc1ccc(I)cc1F [MIRDAMETINIB] |  |  |  |  | GI50 (MDA-MB-231): 1000 nM |
| O=C(CCCCCCC(=O)Nc1ccccc1)NO [VORINOSTAT] |  |  |  |  | GI50 (PC-3): 5000 nM |

Now from value to molecule, other results behind:

| pIC50 [1] | pEC50 [2] | pIC50 [3] | pIC50 [4] | Compound | also measured |
| --- | --- | --- | --- | --- | --- |
| 8.22 | 6.06 | 5.31 | 7.24 | CN1CCOc2c1cnn1c(-c3ccc4cccc(NCC5CCNCC5)c4c3)nnc21 |  |
| 7.89 | 6.11 | 5.71 | 7.24 | CCN1CCOc2c1cnn1c(-c3ccc4cccc(NCC5CCNCC5)c4n3)nnc21 |  |
| 7.52 |  | 5.90 | 9.00 | CN1CCOc2c1cnn1c(-c3ccc4cc(Cl)cc(NCC5(F)CCNCC5)c4n3)nnc21 | EC50 [2]: Not Active |
| 8.15 | 6.70 | 6.91 | 7.59 | CN1CCOc2c1cnn1c(-c3ccc4ccnc(NCC5(F)CCNCC5)c4c3)nnc21 | pIC50 [5]: < 4.70; pIC50 [6]: < 5.00; clearance [7]: 23.2 mL/min/kg; CLH [8]: < 30% |
| 7.60 | 6.49 | 5.61 | 6.45 | CN1CCOc2c1cnn1c(-c3ccc4cccc(NC5CCOCC5)c4n3)nnc21 |  |
| 7.77 | 5.69 | 5.33 | 6.85 | c1ccc(OCCN2CCOc3c2cnn2c(-c4ccc5cccc(NCC6CCNCC6)c5n4)nnc32)cc1 |  |
| 8.15 | 6.67 | 5.54 | 7.40 | CN1CCC(Nc2cccc3ccc(-c4nnc5c6c(cnn45)N(C)CCO6)nc23)CC1 | pIC50 [5]: < 4.70; pIC50 [6]: < 5.00 |
| 7.92 | 7.15 | 6.16 | 8.22 | CN1CCOc2c1cnn1c(-c3ccc4ccc(Cl)c(NCC5(F)CCNCC5)c4n3)nnc21 | pIC50 [5]: 5.68; pIC50 [6]: < 5.00 |
| 7.52 | 6.49 | 5.21 | 6.40 | CN1CCOc2c1cnn1c(-c3ccc4cccc(NCC5CCOCC5)c4n3)nnc21 |  |
| 7.92 | 6.10 | 5.40 | 7.22 | CCCN1CCOc2c1cnn1c(-c3ccc4cccc(NCC5CCNCC5)c4n3)nnc21 |  |
| 7.59 | 6.96 | 5.96 | 6.62 | CN1CCOc2c1cnn1c(-c3ccc4ccnc(NC5CCCCC5)c4c3)nnc21 | pIC50 [6]: < 5.00 |
| 7.74 | 6.81 | 5.44 | 7.92 | CN1CCOc2c1cnn1c(-c3ccc4c(F)c(F)cc(NCC5(F)CCNCC5)c4n3)nnc21 | pIC50 [5]: < 4.70; pIC50 [6]: 5.20; clearance [7]: 3.83 mL/min/kg; CLH [8]: < 30% |
| 7.52 | 6.55 | 5.52 | 7.85 | CN1CCOc2c1cnn1c(-c3ccc4c(F)ccc(NCC5(F)CCNCC5)c4n3)nnc21 | pIC50 [5]: < 4.70; pIC50 [6]: 5.40; clearance [7]: 9.33 mL/min/kg; CLH [8]: < 30% |
| 7.85 | 6.75 | 5.37 | 7.09 | CN1CCC(CNc2cccc3ccc(-c4nnc5c6c(cnn45)N(C)CCO6)nc23)CC1 | pIC50 [5]: < 4.70; pIC50 [6]: < 5.00 |
| 7.49 | 6.66 | 5.48 | 6.52 | CN1CCOc2c1cnn1c(-c3ccc4cccc(NC5CCCCC5)c4n3)nnc21 | pIC50 [5]: < 4.70; pIC50 [6]: < 5.00; clearance [7]: 23.7 mL/min/kg; CLH [8]: < 30% |
| 8.40 | 5.60 | 7.57 | 8.22 | CN1CCOc2c1cnn1c(-c3ccc4ccnc(NCC5CCNCC5)c4c3)nnc21 |  |
| 7.70 |  | 5.00 | 6.55 | CN1CCOc2c1cnn1c(-c3ccc4cccc(NCC5CCOCC5)c4c3)nnc21 |  |
| 8.00 | 6.33 | 6.07 | 8.15 | CN1CCOc2c1cnn1c(-c3ccc4cc(F)cc(NCC5(F)CCNCC5)c4n3)nnc21 |  |
| 7.80 | 6.04 | 5.78 | 7.12 | CC(C)N1CCOc2c1cnn1c(-c3ccc4cccc(NCC5CCNCC5)c4n3)nnc21 |  |
| 7.68 | 6.67 | 5.26 | 7.26 | CN1CCOc2c1cnn1c(-c3ccc4cccc(NCC5(F)CCNCC5)c4n3)nnc21 | pIC50 [6]: < 5.00 |
| 7.85 | 6.15 | 5.37 | 7.77 | CN1CCOc2c1cnn1c(-c3ccc4cccc(NCC5CCNCC5)c4n3)nnc21 |  |
| 7.92 | 5.86 | 6.16 | 7.02 | CN1CCOc2c1cnn1c(-c3ccc4cccc(NC5CCNCC5)c4n3)nnc21 |  |
